Earlier results as cited in paper PMC7797166 (Journal of thoracic oncology : official publication of the …, 2020).
Like-named read-outs stand apart in the source and are kept apart here.

Tested on: T cell
Settings: ref Li et al[31], cited from earlier work

Row | Sequence | tetramer assay (HLA-A*31:01) | tetramer assay (HLA-A*11:01)
1 | HVKITDFGR | positive | 
2 | KITDFGRAK |  | negative
